The results in this text go back to patent publication EP2281824A1, “Furan-imidazolone derivatives, for the treatment of cognitive, neurodegenerative or neuronal diseases or disorders” (NOSCIRA, S.A., priority 2009, dated 2011).

Test [1] deals with T1, BACE-1 β-Secretase recombinant human enzyme (Homo sapiens, UniProt P56817).
T1 construct: purchased R&D Systems
In words: BACE assay (time-resolved fluorescence, TruPoint BACE1 substrate). Format: biochemical. The conditions noted are these: 200 nM peptide substrate, 8 nM enzyme, sodium acetate pH 4.5, 1 h at room temperature; read-out: IC50 Inhibition of BACE Activity. On the procedure:
This assay is based on time-resolved fluorescence ("TRF") technology, using a. BACE peptide substrate containing a fluorescent europium chelate coupled to one end and a quencher coupled to the other end. […] The reagents which are used in this assay are BACE-1 β-Secretase recombinant human enzyme (R&D Systems, Minneapolis, MN), TruPoint™ BACE1 substrate (Perkin Elmer Waltham, MA), sodium acetate, CHAPS and EDTA (Sigma Aldrich, St Louis, MO). The assay is carried out in a 96-well microplate in a final volume of 100 µl using 200 nM peptide substrate and 8 nM enzyme in 50 mM sodium acetate pH 4.5 with 1 mM EDTA and 0.2% (w/v) CHAPS. The plates are incubated for 1 h in the dark at room temperature and then read in a fluorimeter plate reader provided with time-resolved fluorescence capabilities (PolarStar Optima™, BMG-Labtech, Offenburg, Germany) using 337 nm as excitation wavelength and 615 nm as the emission wavelength. Compounds are tested in duplicate using a concentration range extending from 5 nM to 100 µM, using 10 µM H-4848 (commercial BACE inhibitor, BACHEM, Bubendorf, Switzerland) as control.
The compounds of formula (I) of the present invention where submitted to the above indicated assay, in order to determine their BACE activity inhibition. The results, indicated in IC50 format, are indicated below in Table I. IC50 is the half maximal inhibitory concentration, which is a measure of the effectiveness of a compound in inhibiting biological or biochemical function. This quantitative measure indicates the concentration of a particular substance is needed to inhibit a given biological process by half. In other words, it is the half maximal (50%) inhibitory concentration (IC) of a substance.

A further test deals with Aβ secretion. In words: Inhibition of beta-amyloid secretion (Aβ1-40 ELISA of cell culture supernatants). The note with it: CHO-7W; CHO7w cell line stably transfected with human BACE, 48 hours, Aβ (1-40) in supernatants. In kind it is cell-based. On the procedure: To quantify human Aβ1-40 an ELISA-based commercial kit was used (Immunoassay Kit Human β Amyloid 1-40, The Genetics Company, Schlieren, Switzerland). Aβ (1-40) peptide was quantified from cell culture supernatants using a CHO7w cell line stably transfected with human BACE. β-Secretase inhibitor IV (Calbiochem, San Diego, CA), was used as Aβ secretion reduction positive control in all the Aβ secretion studies. Cells were grown in DMEM supplemented with 2% Foetal bovine serum, 1% penicillin-streptomycin, 1% L-glutamine and 200 µg/ml G418. Cells were seeded in 96-well culture microplates at 5000 cells/well and treated with 10 µM β secretase inhibitor IV or compounds for 48 hours. Then cell culture supernatants were collected and analyzed according to the kit manufacturer's instructions. At 10 µM β-secretase inhibitor IV the inhibition of Aβ secretion inhibition is usually between 70 and 100 %.
Some of the compounds of formula (I) of the present invention where submitted to the above indicated assay, in order to determine their capacity of inhibiting Aβ secretion. The results, indicated in IC50 format, are indicated below in Table I. Table I
For orientation: An ELISA detects its analyte on a solid surface through an enzyme-linked reagent.

T1 sequence (P56817 46-501): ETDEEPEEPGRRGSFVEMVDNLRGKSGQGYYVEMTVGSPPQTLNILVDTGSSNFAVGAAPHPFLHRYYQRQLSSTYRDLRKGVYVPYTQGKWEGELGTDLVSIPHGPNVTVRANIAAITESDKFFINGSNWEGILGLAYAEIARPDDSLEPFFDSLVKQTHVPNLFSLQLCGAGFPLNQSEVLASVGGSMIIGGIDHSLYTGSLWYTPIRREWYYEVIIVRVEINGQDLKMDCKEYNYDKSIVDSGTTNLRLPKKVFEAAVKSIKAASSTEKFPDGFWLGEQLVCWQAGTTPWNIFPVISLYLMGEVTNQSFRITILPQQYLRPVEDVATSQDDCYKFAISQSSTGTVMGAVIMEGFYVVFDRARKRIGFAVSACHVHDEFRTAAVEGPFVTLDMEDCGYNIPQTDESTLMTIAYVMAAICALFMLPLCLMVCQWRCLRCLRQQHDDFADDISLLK

`NC1=NC(=Cc2ccc(-c3ccc([N+](=O)[O-])cc3)o2)C(=O)N1` [Compound 1, 2-amino-5-[5-(4-nitro-phenyl)-furan-2-ylmethylene]-3,5 dihydro-imidazol-4-one]: in test [1], the concentration for half-maximal inhibition (IC50) was found to be 110 nM.
As to `COc1ccc(-c2ccc(C=C3N=C(N)N(C)C3=O)o2)cc1Cl` [Compound 2, 2-amino-S-[S-(3-chloro-4-methoxy-phenyl)-furan-2-ylmethylene]-3-methyl-3,5-dihydro-imidazol-4-one], the IC50 in test [1] came out at 326 nM.
Still for that read-out and setting: as for `COc1ccc(-c2ccc(C=C3N=C(N)NC3=O)o2)c(OC)c1` [Compound 3, 2-amino-5-[5-(2,4-dimethoxy-phenyl)-furan-2-ylmethylene]-3,5-dihydro-imidazol-4-one], the figure is 369 nM.
For the compound `NC1=NC(=Cc2ccc(-c3ccc4c(c3)OCO4)o2)C(=O)N1` [Compound 4, 2-amino-5-(5-benzo[1,3]dioxol-5-yl-furan-2-ylmethylene)-3,5-dihydro-imidazol-4-one], the figures for the IC50 (in test [1]; in the test with Aβ secretion) were 250 nM and 30000 nM, respectively.
With `COc1ncccc1-c1ccc(C=C2N=C(N)NC2=O)o1` [Compound 5, 2-amino-5-[5-(2-methoxy-pyridin-3-yl)-furan-2-ylmethylene]-3,5-dihydro-imidazol-4-one], the IC50 in test [1] amounted to 360 nM; with Aβ secretion it was 40000 nM.
Take `COc1ncc(-c2ccc(C=C3N=C(N)NC3=O)o2)c(OC)n1` [Compound 6, 2-amino-5-[5-(2,4-dimethoxy-pyrimidin-5-yl)-furan-2-ylmethylene]-3,5-dihydro-imidazol-4-one]: the IC50 in test [1] was determined as 1320 nM.
Regarding `Cc1noc(C)c1-c1ccc(C=C2N=C(N)NC2=O)o1` [Compound 7, 2-Amino-5-[5-(3,5-dimethyl-isoxazol-4-yl)-furan-2-ylmethylene]-3,5-dihydro-imidazol-4-one], the IC50 in test [1] is 390 nM.
For the compound `NC1=NC(=Cc2ccc(-c3ncccn3)o2)C(=O)N1` [Compound 8, 2-amino-5-(5-pyrimidin-2-yl-furan-2-ylmethylene)-3,5-dihydro-imidazol-4-one], the IC50 in test [1] was determined as 1300 nM.
Take `COC(=O)c1ccc(OC)c(-c2ccc(C=C3N=C(N)NC3=O)o2)c1` [Compound 9, 3-[5-(2-amino-5-oxo-1,5-dihydro-imidazol-4-ylidenemethyl)-furan-2-yl]-4-methoxy-benzoic acid methyl ester]: the IC50 was found to be 711 nM in test [1] and 45000 nM with Aβ secretion.
On to `COc1ccc(-c2ccc(C=C3N=C(N)NC3=O)o2)cc1Cl` [Compound 10, 2-Amino-5-[5-(3-chloro-4-methoxy-phenyl)-furan-2-ylmethylene]-3,5-dihydro-imidazol-4-one], for which the IC50 in test [1] was determined as 319 nM.
As to `COc1ccc(C#N)cc1-c1ccc(C=C2N=C(N)N(C)C2=O)o1` [Compound 11, 3-[5-(2-Amino-1-methyl-5-oxo-1,5-dihydro-imidazol-4-ylidenemethyl)-furan-2-yl]-4-methoxy-benzonitrile], in test [1], the IC50 was found to be 220 nM.
As for `COc1ccc(-c2ccc(C=C3N=C(N)N(Cc4ccccc4)C3=O)o2)cc1Cl` [Compound 12, 2-Amino-3-benzyl-5-[5-(3-chloro-4-methoxy-phenyl)-furan-2-ylmethylene]-3,5-dihydro-imidazol-4-one], the IC50 in test [1] is 1230 nM.
As for `COCCN1C(=O)C(=Cc2ccc(-c3ccc(OC)c(Cl)c3)o2)N=C1N` [Compound 13, 2-Amino-5-[5-(3-chloro-4-methoxy-phenyl)-furan-2-ylmethylene]-3-(2-methoxy-ethyl)-3,5-dihydro-imidazol-4-one], in test [1], the IC50 came out at 810 nM.
For the compound `COc1ncccc1-c1ccc(C=C2N=C(N)N(C)C2=O)o1` [Compound 14, 2-Amino-5-[5-(2-methoxy-pyridin-3-yl)-furan-2-ylmethylene]-3-methyl-3,5-dihydro-imidazol-4-one], the IC50 in test [1] was 540 nM.
Turning to `COc1ccc(-c2ccc(C=C3N=C(N)N(C)C3=O)o2)c(OC)c1` [Compound 15, 2-Amino-5-[5-(2,4-dimethoxy-phenyl)-furan-2-ylmethylene]-3-methyl-3,5-dihydro-imidazol-4-one], the IC50 in test [1] turned out to be 346 nM.
As for `Cc1noc(C)c1-c1ccc(C=C2N=C(N)N(C)C2=O)o1` [Compound 16, 2-amino-5-[5-(3,5-dimethyl-isoxazol-4-yl)-furan-2-ylmethylene]-3-methyl-3,5-dihydro-imidazol-4-one], in test [1], the IC50 was found to be 1230 nM.
In the case of `COc1ccc(-c2ccc(C=C3N=C(N)NC3=O)o2)cc1` [Compound 17, 2-Amino-5-[5-(4-methoxy-phenyl)-furan-2-ylmethylene]-3,5-dihydro-imidazol-4-one], the IC50 in test [1] was 422 nM; with Aβ secretion it was 35000 nM.
For the compound `CN1C(=O)C(=Cc2ccc(-c3ccc([N+](=O)[O-])cc3)o2)N=C1N` [Compound 18, Acetate 1-methyl-4-[5-(4-nitro-phenyl)-furan-2-ylmethylene]-5-oxo-4,5-dihydro-1H-imidazol-2-yl-ammonium], the IC50 in test [1] was 400 nM.

In general, IC50 refers to the concentration at which inhibition is half-maximal.
